{
  "source": "the supplement of paper PMC10307832",
  "experiment_in_all_cases": "relative viability (nuclei count vs DMSO), 5 days (fraction); higher = more cells survive",
  "key": {"[1]": {"compound": "C=CC(=O)N1CCC[C@@H](n2nc(-c3ccc(Oc4ccccc4)cc3)c3c(N)ncnc32)C1 [Ibrutinib] + COc1cccc2cc(-c3nc([C@H]4CC[C@H](C(=O)O)CC4)n4ncnc(N)c34)[nH]c12 [OSI-027] (partner 0.5 µM)", "method_in_brief": "(§1)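 Lung cancer cell lines in 1536-well plates were dosed by pin tool the day after seeding, either with one drug alone or with a fixed anchor-drug dose plus five library-drug doses (not always all listed) in √10 steps. After 5 days, cells were fixed and their nuclei stained in one step (final 0.05% Triton X-100, 1% formaldehyde, 1 ug/ml Hoechst), then counted on 4× images. Relative viability is the nuclei count in treated wells divided by that in vehicle wells. Values are medians of duplicate plates.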"}, "[2]": {"compound": "C=CC(=O)N1CCC[C@@H](n2nc(-c3ccc(Oc4ccccc4)cc3)c3c(N)ncnc32)C1 [Ibrutinib] + N=C(N)NC(=N)NCCc1ccccc1 [Phenformin] (partner 250 µM)", "method_in_brief": "as §1"}, "[3]": {"compound": "C=CCc1cccc(/C=N/NC(=O)CN2CCN(Cc3ccccc3)CC2)c1O [PAC-1] + CC(=O)Nc1cccc(-n2c(=O)n(C3CC3)c(=O)c3c(Nc4ccc(I)cc4F)n(C)c(=O)c(C)c32)c1 [Trametinib] (partner 0.02 µM)", "method_in_brief": "as §1"}, "[4]": {"compound": "C=CCc1cccc(/C=N/NC(=O)CN2CCN(Cc3ccccc3)CC2)c1O [PAC-1] + Nc1nc2[nH]cc(CCc3ccc(C(=O)N[C@@H](CCC(=O)O)C(=O)O)cc3)c2c(=O)[nH]1 [Pemetrexed] (partner 0.2 µM)", "method_in_brief": "as §1"}},
  "data": [
    {"cell line": "SK-MES-1", "values": [
      {"measurement": "relative viability", "setting": "[1]; first compound 0.005 µM", "value": 0.584},
      {"measurement": "relative viability", "setting": "[1]; first compound 0.01581 µM", "value": 0.568},
      {"measurement": "relative viability", "setting": "[1]; first compound 0.05 µM", "value": 0.584},
      {"measurement": "relative viability", "setting": "[1]; first compound 0.1581 µM", "value": 0.687},
      {"measurement": "relative viability", "setting": "[1]; first compound 0.5 µM", "value": 0.357},
      {"measurement": "relative viability", "setting": "[2]; first compound 0.005 µM", "value": 0.733},
      {"measurement": "relative viability", "setting": "[2]; first compound 0.01581 µM", "value": 0.629},
      {"measurement": "relative viability", "setting": "[2]; first compound 0.05 µM", "value": 0.638},
      {"measurement": "relative viability", "setting": "[2]; first compound 0.1581 µM", "value": 0.704},
      {"measurement": "relative viability", "setting": "[2]; first compound 0.5 µM", "value": 0.501},
      {"measurement": "relative viability", "setting": "[3]; first compound 0.02 µM", "value": 0.498},
      {"measurement": "relative viability", "setting": "[3]; first compound 0.06325 µM", "value": 0.529},
      {"measurement": "relative viability", "setting": "[3]; first compound 0.2 µM", "value": 0.543},
      {"measurement": "relative viability", "setting": "[3]; first compound 2 µM", "value": 0.622},
      {"measurement": "relative viability", "setting": "[4]; first compound 0.02 µM", "value": 0.939},
      {"measurement": "relative viability", "setting": "[4]; first compound 0.06325 µM", "value": 1.02},
      {"measurement": "relative viability", "setting": "[4]; first compound 0.2 µM", "value": 0.889},
      {"measurement": "relative viability", "setting": "[4]; first compound 2 µM", "value": 0.971}
    ]}
  ]
}
